Data: patent US20150346599A1, “PHOTO-DESTROYABLE QUENCHER AND ASSOCIATED PHOTORESIST COMPOSITION, AND DEVICE-FORMING METHOD” (Rohm and Haas Electronic Materials LLC, priority 2014, published 2015)

Experiments:
[1] = Water absorption (hygroscopicity): water weight gain of the solid; assay type: physicochemical; details: for Weight Gain relative to Reference (%): 1 millimole solid in open vial in 4 liter vessel with 100 milliliters exposed water, 18 hours, reference triphenylsulfonium camphorsulfonate; for Matter State After Exposure to Water: after 18 hours exposure to water vapour
Method: Compounds that absorb atmospheric moisture may cause inaccurate amount additions into formulations and are also difficult to handle. […] To quantify this characteristic, 1 millimole of each solid was placed in an open vial and enclosed in a 4 liter vessel containing 100 milliliters of exposed water. The weight of each vial was prerecorded and reweighed 18 hours later to determine the water weight gain.

[2] = Shelf life testing: compound stability in solution by 1H NMR peak integration; details: 100 millimolar in deuterated dimethylsulfoxide; for Compound Purity (%) 0 days / Compound Purity (%) 3 days / Compound Purity (%) 14 days: 1H NMR at 25° C.
Method: Compound stability was monitored by peak integration using ^1H NMR at 25° C. with relaxation delay set to 5 seconds on a 300 Megahertz Varian NMR spectrometer. Compound purity was calculated using the following formula: 100−((sum impurity peaks)/((total impurity peaks)+(total purity peaks))*100).

Compound	Weight Gain relative to Reference (%) [1]	Matter State After Exposure to Water [1]	Matter State Before Exposure to Water [1]	Hygroscopicity (in words) [1]	Compound Purity (%) 0 days [2]	Compound Purity (%) 3 days [2]	Compound Purity (%) 14 days [2]	Compound stability (in words) ([2]; up to 14 days)
5-(4-(tert-Butyl)phenyl)-5H-dibenzo[b,d]thiophen-5-ium 2,3,4,5,6-pentafluorophenolate [Example 5]	−29%	Solid	Solid					
5-Phenyl-5H-dibenzo[b,d]thiophen-5-ium 2,3,4,5,6-pentafluorophenolate [Example 2]	43%	Solid	Solid	hygroscopic				
5-Phenyl-5H-dibenzo[b,d]thiophen-5-ium 2,3,5,6-tetrafluorophenolate [Example 3]	29%	Solid	Solid					
5-Phenyl-5H-dibenzo[b,d]thiophen-5-ium 3,5-bis(trifluoromethyl)-phenolate [Example 4]	−14%	Solid	Solid					
Cc1cc(-[s+]2c3ccccc3c3ccccc32)cc(C)c1OCC(=O)OC1(C)C2CC3CC(C2)CC1C3.[O-]c1c(F)c(F)c(F)c(F)c1F [Example 6, 5-(3,5-Dimethyl-4-(2-(((1R,3S,5r,7r)-2-methyladamantant-2-yl)oxy)-2-oxoethoxy)phenyl)-5H-dibenzo[b,d]thiophen-5-ium 2,3,4,5,6-pentafluorophenolate]	−43%		Solid					
Triphenylsulfonium pentafluorophenolate [Example 1]	29%		Solid		100%	100%	100%	substantially more stable than triphenylsulfonium phenolate
triphenylsulfonium camphorsulfonate [reference compound]		Solid	Solid		100%	100%	100%	
